The text below walks through data of publication PMC4868099 (ACS Medicinal Chemistry Letters, 2016).

The test system of assay [1] is GLS (both KGA and GAC isoenzymes) over GLS2. The conditions noted are these: cited from earlier work.
For assay [2], the system named is MDA-MB-231. Put plainly: Cell growth / viability, CellTiter-Glo, MDA-MB-231. Type of assay: cell-based, human. The conditions noted are these: 72 h of incubation.
Assay [3] has as its target T1, human kidney-type glutaminase (hKGA124–669) (Homo sapiens, UniProt O94925).
T1 sequence (O94925 124-669): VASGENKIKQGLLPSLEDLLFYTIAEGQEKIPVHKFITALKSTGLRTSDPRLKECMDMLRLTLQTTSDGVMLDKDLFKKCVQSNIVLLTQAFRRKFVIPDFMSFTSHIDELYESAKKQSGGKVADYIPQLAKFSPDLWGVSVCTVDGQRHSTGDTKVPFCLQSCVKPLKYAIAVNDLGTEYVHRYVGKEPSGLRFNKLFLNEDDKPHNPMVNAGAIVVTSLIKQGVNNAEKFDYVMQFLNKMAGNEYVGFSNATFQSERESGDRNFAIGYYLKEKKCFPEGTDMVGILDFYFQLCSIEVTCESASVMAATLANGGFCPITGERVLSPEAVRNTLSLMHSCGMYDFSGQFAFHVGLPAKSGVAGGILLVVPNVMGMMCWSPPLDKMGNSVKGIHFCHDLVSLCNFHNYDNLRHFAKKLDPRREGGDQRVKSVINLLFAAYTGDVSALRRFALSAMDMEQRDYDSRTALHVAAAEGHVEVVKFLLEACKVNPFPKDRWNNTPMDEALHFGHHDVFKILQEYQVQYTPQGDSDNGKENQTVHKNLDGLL
Type of assay: biochemical.

Assay [4] concerns HCC1806. Put plainly: Cell growth / viability, CellTiter-Glo, HCC1806. Type of assay: cell-based, human. Conditions: 72 h of incubation. On the technique in general: Cellular ATP, detected with luciferase, serves as a proxy for viable cell number.

“Also recorded” adds a separate entry of the source.

In the case of `[N-]=[N+]=CC(=O)CC[C@H](N)C(=O)O` [DON, 6-Diazo-5-oxo-L-norleucine], in assay [1], the “selectivity GLS versus GLS2” value is “inhibits both GLS and GLS2”.

As to `O=C(Cc1ccccc1)Nc1nnc(CCCCc2nnc(NC(=O)Cc3ccc(O)cc3)s2)s1` [compound 2m, 4-hydroxy-N-[5-[4-[5-[(2-phenylacetyl)amino]-1,3,4-thiadiazol-2-yl]butyl]-1,3,4-thiadiazol-2-yl]-benzeneacetamide], the “antiproliferative effect compared with BPTES and CB-839 in MDA-MB-231” value in assay [2] is “least effective”. Moreover, the “growth inhibition of MDA-MB-231” value in assay [2] (1000 nM, P < 0.05 compared to controls) is listed as “statistically significant growth inhibition”. For the same compound, the “increase in GLS inhibitory potency from the corresponding acetoxy derivative 2j” value in assay [3] is given as about 8 fold. In addition, the “time dependency of GLS inhibitory potency (effect of preincubation time)” value in assay [3] (Figure 2) is listed as “no time-dependent increase in GLS inhibitory potency; also recorded: did not exhibit time-dependency”. Moreover, in assay [4], the “antiproliferative effect compared with BPTES and CB-839 in HCC1806” value was “least effective”.

Regarding `O=C(Cc1ccc(O)cc1)Nc1nnc(CCCCc2nnc(NC(=O)Cc3ccc(O)cc3)s2)s1` [2q], the “higher GLS inhibitory potency compared with 2p” value in assay [3] is 10 fold.
